# Measured values reported in ChEMBL document CHEMBL3988442, “University of Dundee, Small-Polar-MMV Screening Library” (2021).
# Values joined by “and” are separate entries in the source; they are usually repeats but may differ in a detail not shown here. Equal values may be shown once.
# Legend:
# [1] = target: T1, Arginase-2, mitochondrial (Homo sapiens, UniProt P78540); assay: in vitro enzyme assay to detect the production of urea directly proportional to the activity of Arginase II; type: functional
# T1 sequence (P78540 whole entry): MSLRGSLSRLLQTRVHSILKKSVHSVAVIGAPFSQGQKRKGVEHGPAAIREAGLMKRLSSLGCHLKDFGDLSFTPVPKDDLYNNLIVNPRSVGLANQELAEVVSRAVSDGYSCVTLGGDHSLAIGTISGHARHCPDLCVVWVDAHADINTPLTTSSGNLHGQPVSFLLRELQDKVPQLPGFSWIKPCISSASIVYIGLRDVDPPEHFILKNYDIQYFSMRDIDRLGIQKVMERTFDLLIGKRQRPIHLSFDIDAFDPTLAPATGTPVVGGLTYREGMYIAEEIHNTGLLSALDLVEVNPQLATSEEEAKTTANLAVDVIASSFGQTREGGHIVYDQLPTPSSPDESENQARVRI
# [2] = target: Chromo domain-containing protein 1 (Saccharomyces cerevisiae (strain ATCC 204508 / S288c) (Baker's yeast), UniProt P32657); assay: ScCHD-1 Enzyme Inhibition Assay; type: functional
# [3] = target: Protein translocase subunit SecA (Escherichia coli (strain K12), UniProt P10408); assay: Assay to Identify E. coli SecA ATPase Inhibitors; type: functional
# [4] = Trypanosoma cruzi proteasome luciferase counter-screen; type: functional, N/A
# [5] = system: Plasmodium falciparum; assay: Plasmodium falciparum sporozoite viability assay; type: functional, organism-based; conditions: for IC50: Plasmodium falciparum
# [6] = target: T2, Proteasome subunit beta (Trypanosoma cruzi, UniProt O96673); assay: Trypanosoma cruzi proteasome chymotrypsin-like activity (TcProtChymo) assay.; type: functional
# T2 sequence (O96673 whole entry): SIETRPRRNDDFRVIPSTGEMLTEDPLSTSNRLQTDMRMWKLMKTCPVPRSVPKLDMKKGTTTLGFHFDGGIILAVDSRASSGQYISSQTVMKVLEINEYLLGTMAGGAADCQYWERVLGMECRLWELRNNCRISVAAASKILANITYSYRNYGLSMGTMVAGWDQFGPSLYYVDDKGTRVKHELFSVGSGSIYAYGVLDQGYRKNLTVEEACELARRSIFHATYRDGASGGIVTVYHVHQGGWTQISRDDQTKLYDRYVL
# [7] = target: Lysine--tRNA ligase (Plasmodium falciparum (isolate 3D7), UniProt Q8IDJ8); assay: Pf-KRS-1 (Lysyl-RNA Synthetase-1, KRS-1, cytosolic KRS) from Plasmodium falciparum. Inhibitor assay, 384 well plate, luminescence read.; type: functional
# [8] = target: T3, Coenzyme A biosynthesis bifunctional protein CoaBC (Mycobacterium tuberculosis (strain ATCC 25618 / H37Rv), UniProt P9WNZ1); assay: Biomol Green assay for MtCoaBC inhibitor, OD650 read; type: functional
# T3 sequence (P9WNZ1 whole entry): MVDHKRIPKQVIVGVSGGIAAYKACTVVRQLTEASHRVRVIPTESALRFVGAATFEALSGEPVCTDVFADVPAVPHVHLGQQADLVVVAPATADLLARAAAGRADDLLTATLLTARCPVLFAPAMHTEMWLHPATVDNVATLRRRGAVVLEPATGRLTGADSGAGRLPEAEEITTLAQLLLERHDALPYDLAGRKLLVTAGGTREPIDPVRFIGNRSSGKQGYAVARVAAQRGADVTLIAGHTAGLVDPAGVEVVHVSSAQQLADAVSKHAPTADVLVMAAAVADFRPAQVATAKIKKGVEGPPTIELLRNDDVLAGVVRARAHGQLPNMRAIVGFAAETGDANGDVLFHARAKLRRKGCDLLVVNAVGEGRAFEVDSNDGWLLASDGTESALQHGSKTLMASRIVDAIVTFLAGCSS
# [9] = microbe, parasite or virus in culture; conditions: Mycobacterium tuberculosis, 96 h, read-out: pIC50 (converted)
# [10] = microbe, parasite or virus in culture; conditions: Mycobacterium tuberculosis, 72 h, read-out: pIC50 (converted)
# [11] = system: Schistosoma mansoni; assay: High throughput screening of compounds against Schistosoma mansoni motility; type: functional; design: dose or concentration left out as unconfirmed
# [12] = target: T4, Ubiquitin-activating enzyme e1, putative (Leishmania donovani (strain BPK282A1), UniProt E9BSI1); assay: Leishmania donovani Ubiquitin Activating Enzyme (LdE1); type: functional
# T4 sequence (E9BSI1 whole entry): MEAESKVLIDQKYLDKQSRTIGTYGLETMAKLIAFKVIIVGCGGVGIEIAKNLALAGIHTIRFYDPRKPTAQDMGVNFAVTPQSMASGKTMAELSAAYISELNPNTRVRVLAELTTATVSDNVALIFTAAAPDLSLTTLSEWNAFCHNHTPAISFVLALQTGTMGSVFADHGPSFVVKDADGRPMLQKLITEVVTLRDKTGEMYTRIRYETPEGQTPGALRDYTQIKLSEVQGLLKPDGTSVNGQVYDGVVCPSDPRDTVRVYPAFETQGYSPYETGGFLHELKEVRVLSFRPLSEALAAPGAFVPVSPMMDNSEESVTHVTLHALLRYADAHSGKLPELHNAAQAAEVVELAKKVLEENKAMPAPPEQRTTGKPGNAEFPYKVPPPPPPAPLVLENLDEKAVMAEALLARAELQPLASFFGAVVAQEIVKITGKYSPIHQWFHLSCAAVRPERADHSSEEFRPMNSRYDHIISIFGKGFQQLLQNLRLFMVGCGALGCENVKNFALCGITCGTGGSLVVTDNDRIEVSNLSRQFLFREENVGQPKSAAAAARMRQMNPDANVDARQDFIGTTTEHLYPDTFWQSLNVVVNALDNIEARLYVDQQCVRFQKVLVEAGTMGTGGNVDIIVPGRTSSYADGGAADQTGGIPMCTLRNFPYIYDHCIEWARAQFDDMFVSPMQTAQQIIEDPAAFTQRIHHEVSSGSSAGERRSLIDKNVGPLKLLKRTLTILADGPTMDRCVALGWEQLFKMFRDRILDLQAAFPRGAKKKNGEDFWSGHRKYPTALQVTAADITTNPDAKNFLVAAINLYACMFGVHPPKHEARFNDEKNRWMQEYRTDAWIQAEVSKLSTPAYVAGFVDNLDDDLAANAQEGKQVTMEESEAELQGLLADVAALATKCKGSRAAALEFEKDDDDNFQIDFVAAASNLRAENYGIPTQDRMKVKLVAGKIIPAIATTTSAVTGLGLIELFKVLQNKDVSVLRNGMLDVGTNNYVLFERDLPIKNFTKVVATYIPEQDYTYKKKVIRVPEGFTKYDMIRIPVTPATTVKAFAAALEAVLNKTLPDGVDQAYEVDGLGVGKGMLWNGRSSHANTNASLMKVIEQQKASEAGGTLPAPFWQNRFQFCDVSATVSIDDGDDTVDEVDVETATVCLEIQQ
# [13] = target: Polyketide synthase Pks13 (Mycobacterium tuberculosis (strain ATCC 25618 / H37Rv), UniProt I6X8D2); assay: Mycobacterium tuberculosis Polyketide synthase 13 Thioesterase (PKS13); type: functional
# Polyketide synthase Pks13, sequence (I6X8D2 whole entry): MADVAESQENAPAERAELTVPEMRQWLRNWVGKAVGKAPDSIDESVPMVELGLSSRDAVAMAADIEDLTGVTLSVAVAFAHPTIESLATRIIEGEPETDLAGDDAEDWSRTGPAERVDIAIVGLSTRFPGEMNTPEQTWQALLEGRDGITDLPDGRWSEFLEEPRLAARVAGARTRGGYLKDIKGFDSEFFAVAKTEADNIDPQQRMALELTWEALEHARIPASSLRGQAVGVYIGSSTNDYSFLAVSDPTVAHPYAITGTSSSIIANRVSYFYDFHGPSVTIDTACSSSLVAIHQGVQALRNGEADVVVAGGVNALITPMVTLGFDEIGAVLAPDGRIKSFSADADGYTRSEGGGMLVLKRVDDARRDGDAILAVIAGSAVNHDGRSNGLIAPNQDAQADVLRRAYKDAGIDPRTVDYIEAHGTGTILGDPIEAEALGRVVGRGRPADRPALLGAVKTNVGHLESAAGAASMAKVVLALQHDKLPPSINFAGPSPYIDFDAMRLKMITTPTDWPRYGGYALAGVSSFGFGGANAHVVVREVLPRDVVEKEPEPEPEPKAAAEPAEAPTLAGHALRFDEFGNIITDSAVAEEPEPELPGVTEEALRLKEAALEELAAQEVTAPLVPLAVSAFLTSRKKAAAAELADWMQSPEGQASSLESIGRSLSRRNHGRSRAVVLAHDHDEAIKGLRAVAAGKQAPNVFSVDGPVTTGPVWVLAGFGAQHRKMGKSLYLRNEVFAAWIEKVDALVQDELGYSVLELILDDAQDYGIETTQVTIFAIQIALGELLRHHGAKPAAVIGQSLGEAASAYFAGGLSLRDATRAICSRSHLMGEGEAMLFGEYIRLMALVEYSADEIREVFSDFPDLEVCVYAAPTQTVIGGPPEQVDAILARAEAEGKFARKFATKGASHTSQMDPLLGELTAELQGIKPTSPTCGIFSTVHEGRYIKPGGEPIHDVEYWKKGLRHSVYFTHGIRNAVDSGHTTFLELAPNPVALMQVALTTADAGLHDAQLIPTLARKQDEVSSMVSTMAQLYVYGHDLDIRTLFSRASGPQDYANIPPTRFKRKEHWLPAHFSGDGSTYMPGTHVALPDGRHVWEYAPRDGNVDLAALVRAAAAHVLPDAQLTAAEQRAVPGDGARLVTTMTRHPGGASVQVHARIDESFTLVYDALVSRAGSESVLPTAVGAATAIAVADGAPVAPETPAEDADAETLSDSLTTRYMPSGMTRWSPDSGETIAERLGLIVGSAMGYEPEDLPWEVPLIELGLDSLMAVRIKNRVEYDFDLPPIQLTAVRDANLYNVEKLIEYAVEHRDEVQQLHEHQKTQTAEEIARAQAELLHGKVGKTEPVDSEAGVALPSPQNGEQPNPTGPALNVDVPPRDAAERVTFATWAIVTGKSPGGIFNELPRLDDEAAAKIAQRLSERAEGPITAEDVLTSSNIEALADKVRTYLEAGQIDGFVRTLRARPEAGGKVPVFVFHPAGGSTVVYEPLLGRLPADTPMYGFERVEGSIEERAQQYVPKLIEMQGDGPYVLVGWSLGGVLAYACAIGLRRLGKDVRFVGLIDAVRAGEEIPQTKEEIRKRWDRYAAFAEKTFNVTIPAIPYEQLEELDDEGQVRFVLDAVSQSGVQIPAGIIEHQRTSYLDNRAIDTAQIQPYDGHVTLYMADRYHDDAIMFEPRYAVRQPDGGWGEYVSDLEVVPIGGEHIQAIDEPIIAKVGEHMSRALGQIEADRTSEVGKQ
# Chromo domain-containing protein 1, sequence (P32657 whole entry, the tested form may be a part): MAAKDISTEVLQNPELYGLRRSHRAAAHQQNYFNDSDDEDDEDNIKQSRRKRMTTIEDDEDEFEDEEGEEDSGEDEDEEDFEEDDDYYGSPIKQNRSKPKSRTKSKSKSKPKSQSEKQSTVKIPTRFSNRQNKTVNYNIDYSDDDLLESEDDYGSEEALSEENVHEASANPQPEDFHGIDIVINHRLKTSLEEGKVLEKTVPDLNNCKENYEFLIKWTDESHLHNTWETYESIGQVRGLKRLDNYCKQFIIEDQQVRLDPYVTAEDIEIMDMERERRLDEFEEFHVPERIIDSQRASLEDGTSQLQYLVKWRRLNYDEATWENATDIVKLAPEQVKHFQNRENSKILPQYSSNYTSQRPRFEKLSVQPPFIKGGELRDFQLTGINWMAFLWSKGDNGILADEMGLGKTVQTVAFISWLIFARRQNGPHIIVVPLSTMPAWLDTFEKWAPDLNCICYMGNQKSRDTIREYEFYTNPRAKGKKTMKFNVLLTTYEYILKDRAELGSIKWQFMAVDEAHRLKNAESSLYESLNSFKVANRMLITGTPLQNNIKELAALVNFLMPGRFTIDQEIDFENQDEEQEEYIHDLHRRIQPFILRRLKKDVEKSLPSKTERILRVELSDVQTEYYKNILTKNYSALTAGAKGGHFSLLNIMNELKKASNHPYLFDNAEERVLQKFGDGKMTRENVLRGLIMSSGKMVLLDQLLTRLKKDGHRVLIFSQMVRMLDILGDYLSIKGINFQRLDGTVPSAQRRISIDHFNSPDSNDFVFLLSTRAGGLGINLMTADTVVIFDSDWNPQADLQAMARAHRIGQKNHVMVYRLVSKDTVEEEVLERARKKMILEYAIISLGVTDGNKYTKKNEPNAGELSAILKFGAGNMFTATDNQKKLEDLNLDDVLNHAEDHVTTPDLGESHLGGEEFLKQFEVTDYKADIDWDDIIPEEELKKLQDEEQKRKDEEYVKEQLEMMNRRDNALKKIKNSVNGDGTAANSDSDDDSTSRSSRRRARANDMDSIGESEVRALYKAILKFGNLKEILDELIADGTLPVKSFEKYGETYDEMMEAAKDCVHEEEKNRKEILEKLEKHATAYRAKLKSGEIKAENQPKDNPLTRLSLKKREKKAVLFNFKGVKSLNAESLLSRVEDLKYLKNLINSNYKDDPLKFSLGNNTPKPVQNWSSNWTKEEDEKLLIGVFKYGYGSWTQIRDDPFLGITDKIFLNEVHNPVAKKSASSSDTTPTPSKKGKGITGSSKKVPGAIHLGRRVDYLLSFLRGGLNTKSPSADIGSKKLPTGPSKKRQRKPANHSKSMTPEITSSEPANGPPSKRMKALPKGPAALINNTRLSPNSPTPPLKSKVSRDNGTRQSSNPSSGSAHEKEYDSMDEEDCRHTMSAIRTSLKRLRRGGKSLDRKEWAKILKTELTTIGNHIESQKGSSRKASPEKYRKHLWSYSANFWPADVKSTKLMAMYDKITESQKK
# Protein translocase subunit SecA, sequence (P10408 whole entry): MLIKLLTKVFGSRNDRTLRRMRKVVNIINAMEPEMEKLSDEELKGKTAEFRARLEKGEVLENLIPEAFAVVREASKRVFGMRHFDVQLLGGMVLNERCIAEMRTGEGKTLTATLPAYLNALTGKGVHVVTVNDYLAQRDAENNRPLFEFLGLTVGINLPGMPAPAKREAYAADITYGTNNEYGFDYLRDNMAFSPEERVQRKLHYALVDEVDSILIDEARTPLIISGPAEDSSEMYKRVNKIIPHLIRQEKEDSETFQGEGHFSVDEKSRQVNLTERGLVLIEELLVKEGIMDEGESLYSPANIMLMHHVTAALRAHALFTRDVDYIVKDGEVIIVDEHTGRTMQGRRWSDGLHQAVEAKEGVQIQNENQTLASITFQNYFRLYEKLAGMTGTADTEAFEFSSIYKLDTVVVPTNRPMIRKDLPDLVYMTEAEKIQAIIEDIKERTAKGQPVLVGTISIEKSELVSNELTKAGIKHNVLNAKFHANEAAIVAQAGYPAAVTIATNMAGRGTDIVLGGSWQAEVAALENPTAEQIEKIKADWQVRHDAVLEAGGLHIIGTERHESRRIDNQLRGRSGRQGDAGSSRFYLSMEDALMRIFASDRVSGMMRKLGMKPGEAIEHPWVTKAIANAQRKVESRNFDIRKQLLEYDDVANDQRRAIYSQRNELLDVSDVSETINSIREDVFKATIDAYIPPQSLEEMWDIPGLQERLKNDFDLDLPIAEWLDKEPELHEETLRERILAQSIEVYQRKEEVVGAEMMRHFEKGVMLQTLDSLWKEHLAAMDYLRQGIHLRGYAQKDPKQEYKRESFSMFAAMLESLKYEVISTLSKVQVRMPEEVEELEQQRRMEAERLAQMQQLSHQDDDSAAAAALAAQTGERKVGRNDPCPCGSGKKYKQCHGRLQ
# Lysine--tRNA ligase, sequence (Q8IDJ8 whole entry): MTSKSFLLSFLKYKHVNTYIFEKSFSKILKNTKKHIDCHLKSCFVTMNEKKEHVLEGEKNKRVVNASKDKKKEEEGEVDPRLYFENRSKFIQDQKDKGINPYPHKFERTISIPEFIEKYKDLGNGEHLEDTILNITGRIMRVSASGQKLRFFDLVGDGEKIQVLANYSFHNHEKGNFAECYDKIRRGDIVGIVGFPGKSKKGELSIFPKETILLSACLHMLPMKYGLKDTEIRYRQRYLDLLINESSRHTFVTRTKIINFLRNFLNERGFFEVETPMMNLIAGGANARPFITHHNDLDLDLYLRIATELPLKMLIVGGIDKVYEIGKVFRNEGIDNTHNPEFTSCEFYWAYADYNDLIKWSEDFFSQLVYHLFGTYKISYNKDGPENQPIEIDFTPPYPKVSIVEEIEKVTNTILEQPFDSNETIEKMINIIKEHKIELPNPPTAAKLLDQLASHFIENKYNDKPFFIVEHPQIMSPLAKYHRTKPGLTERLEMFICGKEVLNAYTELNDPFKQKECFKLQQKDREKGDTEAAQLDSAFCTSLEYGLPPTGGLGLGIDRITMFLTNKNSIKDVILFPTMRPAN
SMILES,IC50 [1],also measured
Cc1ccc([C@@H]2CN(S(=O)(=O)N(C)C)C[C@H]2N(C)C)cc1,> 100 µM,
O=C(Cn1ccc2c(Cl)cccc21)N1CCC2(CC1)OCCO2,> 100 µM,
COc1ccc2c(c1)OCC(CNC(=O)c1ccncc1)C2 (stereo not drawn),> 100 µM,IC50 [2]: > 29.5 µM
CCn1cc(CN(C)S(=O)(=O)c2cnn(CC)c2C)c(C)n1,,IC50 [3]: > 100 µM
CN(C)c1ncc(CN2CCOC(C(=O)Nc3ccccc3)C2)cn1 (stereo not drawn),> 100 µM,
CCC(C(=O)NC)N(c1cccc(C)c1)S(C)(=O)=O (stereo not drawn),> 100 µM,
COCCn1ccc2cc(NC(C)=O)ccc21,,IC50 [3]: > 100 µM
CCc1c(C(=O)NCC2CCS(=O)(=O)C2)cnn1-c1ccc(C)cc1 (stereo not drawn),,IC50 [3]: > 100 µM
CSc1ccccc1C(C(=O)O)N1CCN(Cc2ccccn2)CC1 (stereo not drawn),> 100 µM,
CN1CCCC1c1ccc(C(=O)N2CCc3ccccc3C2)s1 (stereo not drawn),,pIC50 [4]: 4.715 and 4.643; pIC50 [5]: 6.857; IC50 [5]: 0.121 µM; IC50 [6]: 10.3 µM and 8.37 µM
CC1=Nc2c(c(=O)[nH]n2C2CCOCC2)C(c2cccc(Br)c2)S1 (stereo not drawn),> 100 µM,
COc1cccc([C@@H]2CN(C(=O)c3ccc(C)cc3O)C[C@H]2C(=O)O)c1,> 100 µM,
CN(CCO)C(=O)c1coc(CN2CCN(c3ccccc3F)CC2)n1,> 100 µM,IC50 [2]: > 29.5 µM
C[S+]([O-])CCCNC(=O)c1cc(Br)c2c(c1)OCCO2 (stereo not drawn),> 100 µM,
CCNC(=O)Nc1ccc2c(ccn2CC(=O)N(CC)CC)c1,,IC50 [3]: > 100 µM
Cc1nc(NCC2CC2)nc2c1COCC21CCN(C)C1 (stereo not drawn),> 100 µM,
O=C(NCc1ccncc1)N(Cc1ccccc1F)C1CC1,> 100 µM,
CN(Cc1ccccn1)C1COC2(CCN(Cc3cccnc3)CC2)C1 (stereo not drawn),> 100 µM,
CN(C)C(=O)[C@@H]1CCO[C@@H]2CCN(CCc3ccccc3)C[C@@H]21,> 100 µM,IC50 [7]: > 50.1 µM
COc1cccc(CNCc2nnc3n2CC(C(F)(F)F)CC3)c1 (stereo not drawn),> 100 µM,
O=C1CSC(c2ccsc2)c2c(n(C3CCOCC3)[nH]c2=O)N1 (stereo not drawn),> 100 µM,
O=C(CO)N1CCC(c2cncc(-c3cccc(Cl)c3)n2)CC1,> 100 µM,IC50 [8]: > 30.2 µM
COCCN1C[C@@H]2CCCO[C@@H]2[C@H](N(C)Cc2ccco2)C1,> 100 µM,
O=c1[nH]c2c(c(=O)n1C1CCCCC1)CCC2Nc1ccccc1Cl (stereo not drawn),> 100 µM,IC50 [7]: 14 µM
COCc1c(C(=O)NC2CCCC2)nnn1-c1ccc(C)cc1,,IC50 [3]: > 100 µM
CCn1c(NCc2ccco2)nc2c(C)nn(C)c2c1=O,> 100 µM,

SMILES,IC50 [1],also measured
O=C(Cn1nc2c(cc1=O)CSCC2)NC(Cc1ccccc1)C(=O)O (stereo not drawn),> 100 µM,
COc1ccc(-c2nc(CN3CC(n4cc(C)cn4)C3)no2)cc1,> 100 µM,IC50 [9]: 39.7 µM; IC50 [10]: 47 µM
CC(C)CN1CCC(NC(=O)c2ccc(F)cc2I)CC1,> 100 µM,Percent Effect [11]: 28.14%
Cc1nc(CCNC(=O)N2CCC(Cc3cnn(C)c3)C2)cs1 (stereo not drawn),> 100 µM,
CC1(C)OCC(CNC(=O)c2cnn(-c3cc(Cl)ccc3Cl)c2N)O1 (stereo not drawn),,IC50 [3]: > 100 µM
COc1ccccc1CN1CCC2(CC1)CC(Oc1ccccn1)CO2 (stereo not drawn),> 100 µM,
Cc1[nH]ccc1C(=O)N1CCCC(c2nccn2Cc2cscn2)C1 (stereo not drawn),> 100 µM,
Cc1ncsc1CCC(=O)N1CCCC[C@H](N(C)C)C1,> 100 µM,
O=C(NCc1ccccn1)[C@]12COC[C@H]1CN(C1CCC1)C2,> 100 µM,
COCCNC(=O)c1cn(C(C)(C)C)c2ncccc12,,IC50 [3]: > 100 µM
Cc1cnc(CN(Cc2ccccc2)CC(O)c2cccs2)cn1 (stereo not drawn),> 100 µM,
COc1ccc(-n2ncc(C(=O)NCC3COC(C)(C)O3)c2N)cc1 (stereo not drawn),,IC50 [3]: > 100 µM
CCN(C)c1ccc(C(=O)N(CCOC)Cc2ccccn2)cc1,> 100 µM,
O=C(COc1cccc(Br)c1)N1CCN(c2nccs2)CC1,> 100 µM,IC50 [2]: > 29.5 µM
Cc1cc(CNC(=O)N2CCN(c3nc(C)c(C)s3)CC2)no1,> 100 µM,
COc1ccccc1Oc1ncccc1CNC(=O)C(C)N1CCCC1 (stereo not drawn),> 100 µM,Percent Effect [11]: 13.35%
Cc1nc(C)c(C(=O)OCCNc2ncccc2C#N)s1,,pIC50 [4]: 4.56 and 4.563; IC50 [12]: > 100 µM; IC50 [6]: 7.22 µM and 8.26 µM
CCCc1c(C(=O)NC2CCCC2)nnn1-c1ccc(OC)cc1,,IC50 [3]: > 100 µM
COCc1noc(-c2ccc(N3CCCCC3CO)nc2)n1 (stereo not drawn),,pIC50 [4]: 4.522 and 4.491; pIC50 [5]: 7.545; IC50 [5]: 0.0293 µM; IC50 [6]: 8.74 µM and 8.62 µM
CS(=O)(=O)NCC(=O)N1CCCC1c1noc(C2CC2)n1 (stereo not drawn),> 100 µM,
COCC(C)NC(=O)c1cn(C(C)(C)C)c2ncccc12 (stereo not drawn),,IC50 [3]: > 100 µM
CC(C)c1n[nH]c(C(=O)Nc2cc[nH]n2)c1Br,,pIC50 [4]: 4.666 and 4.69; pIC50 [5]: 7.564; IC50 [5]: 0.0186 µM; IC50 [6]: 5.88 µM and 6.65 µM
CNC(=O)[C@H]1C[C@@H]2CN(C(=O)c3ccco3)C[C@@H]2N1S(C)(=O)=O,> 100 µM,
COC(=O)Cn1cccc(S(=O)(=O)N2CCC(C)CC2)c1=O,> 100 µM,IC50 [13]: > 100 µM
Cc1nn(CCO)c(C)c1CNC1CCc2c(Cl)cccc21 (stereo not drawn),> 100 µM,
